PMC8945229, “Development and Biological Characterization of a Novel Selective TrkA Agonist with Neuroprotective Properties against Amyloid Toxicity” (Biomedicines, 2022)

Molecular target: T1, p75^NTR (Homo sapiens, UniProt P08138)
T1 construct: expressed in transfected cells; host or cells: HEK293T (transient, lipofectamine)
Assay: p75NTR activation in HEK cells transfected with p75NTR and Traf6 (immunoprecipitation)
Type: cell-based
Details: 500 nM, 30′
Description: PC12 and HEK293T cells were obtained from LGC Promochem GmbH (Teddington, UK) and cultured under the conditions specified by the manufacturer. NIH3T3 cells were stably transfected with human TrkB plasmid. PC12 cells were grown in DMEM medium (11965084, Gibco, Grand Island, NY, USA) containing 10% Horse Serum (16050122, Gibco, Grand Island, NY, USA), 5% Fetal Bovine Serum (10270106, Gibco, Grand Island, NY, USA), 100 units/mL Penicillin and 0.1 mg/mL Streptomycin (15140122, Gibco, Grand Island, NY, USA) at 5% CO2 and 37 °C. Cells were used between passages 5–20. HEK293T and NIH3T3 cells were grown in the same medium as PC12 cells supplemented with 10% Fetal Bovine Serum and lacking Horse Serum. For transient transfection of HEK293T cells, lipofectamine was used and cells were transfected with human p75^NTR and Traf6 plasmids. To determine the intracellular activity of endogenous secretases, we tagged (tGFP) a truncated mutant (Tm) of APP containing the original amino acids sequence from M516 to N773. This Tm conserves the secretases cleavage sites, clathrin binding site, tau protein binding site, collagen binding site and some glycosylation sites critical for protein localization and intracellular trafficking. The cDNA of the TmAPP gene was amplified by PCR and subcloned into pturbo-GFP vector. […]

T1 sequence (P08138 29-427): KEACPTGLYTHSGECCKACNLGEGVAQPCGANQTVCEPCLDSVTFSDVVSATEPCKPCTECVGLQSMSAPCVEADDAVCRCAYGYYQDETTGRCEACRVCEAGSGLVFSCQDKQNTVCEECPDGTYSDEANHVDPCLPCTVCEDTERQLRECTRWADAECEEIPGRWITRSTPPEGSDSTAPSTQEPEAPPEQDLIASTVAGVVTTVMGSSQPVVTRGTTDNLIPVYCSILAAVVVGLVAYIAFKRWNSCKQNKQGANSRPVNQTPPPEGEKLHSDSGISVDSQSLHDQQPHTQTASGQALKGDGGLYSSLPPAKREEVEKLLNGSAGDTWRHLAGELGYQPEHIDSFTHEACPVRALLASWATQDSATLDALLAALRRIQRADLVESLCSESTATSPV

CC12CCC(O)CC1=CCC1C2CCC2(C)C1CCC21CC1C=CBr [ENT-A013, (2′R,3S,17S)-2′-(2-Bromovinyl)-5-Androstene-17,1′-Cyclopropan-3-ol]
p75NTR activation (in words): does not activate
